# What was measured:
# [1] = test system: RASMCs; assay: [3H]thymidine incorporation in RASMCs; format: cell-based, rat
# Experimental: (§1) RASMCs were harvested from the thoracic aortas of adult male Sprague-Dawley rats (200-250 g) by enzymatic dissociation as described (Tsai et al., Proc. Natl. Acad. Sci. USA 91, 6369-6373 (1994)). The cells were grown in DMEM supplemented with 10% FCS, penicillin (100 U/ml), streptomycin (100 μg/ml), glutamine ([…]), and 25 mM Hepes (pH 7.4) in a humidified incubator (37° C., 5% CO2). HASMCs (Clonetics, San Diego) were grown in M199 medium (GIBCO BRL, Grand Island, N.Y.) supplemented with 20% FCS, penicillin (100 U/ml), streptomycin (100 μg/ml), and 25 mM Hepes (pH 7.4). Cells from passages 5-9 were used. RASMCs and HASMCs were cultured in 24-well plates containing an appropriate growth medium (DMEM plus 10% FCS for RASMCs, and M199 plus 20% FCS for HASMCs). After the cells had grown to 70-80% confluence, they were rendered quiescent by incubation for 72 h in DMEM (for RASMCs) or M199 (for HASMCs) containing 0.4% charcoal/dextran-treated FCS (FIGS. 2a and 2d) or 0.4% calf serum (CS) (FIGS. 2b and 2c). Phenol red-free DMEM was used in the experiments with estradiol (FIG. 2a). […] After incubation, the cells were washed with Dulbecco's PBS, fixed in cold 10% TCA for at least 2 h, and then washed with 95% ethanol. Incorporated [^3H]thymidine was extracted in 0.2 N NaOH and measured in a liquid scintillation counter.
# [2] = test system: cyclin A, E, B and D1 mRNAs in RASMCs; assay: Northern analysis of cyclin mRNAs in RASMCs; format: cell-based, rat; conditions: 24 h after treatment, FIG. 4
# Experimental: Total RNA from RASMCs was prepared from cultured RASMCs by guanidinium isothiocyanate extraction and centrifugation through cesium chloride. […] RNA samples (20 μg/lane) were electrophoresed on 1.3% formaldehyde-agarose gel, and then transferred onto nitrocellulose filters. The filters were hybridized to ^32P-labeled human cyclin probes as described (Lee et al., J. Biol. Chem. 266, 16188-16192 (1991); Lee et al., J. Biol Chem. 269, 12032-12039 (1994)). To normalize RNA content of each lane, the filters were washed at 80° C. in 50% formamide solution to remove the cyclin probes, and then hybridized with oligonucleotide probes for 28S RNA. Hybridized filters were washed in 30 mM NaCl, 3 mM sodium citrate, and 0.1% sodium dodecyl sulfate at 55° C. Radioactive signals were visualized on Kodak XAR film or PhosphorImager screens (Molecular Dynamics, Inc. Sunnyvale, Calif.).
# [3] = test system: HASMCs; assay: [3H]thymidine incorporation in HASMCs; format: cell-based, human; conditions: quiescent HASMCs, 24 h incubation, FIG. 2d
# Experimental: as §1
# [4] = test system: RASMCs; assay: Cell counting (RASMC proliferation); format: cell-based, rat; conditions: FIG. 3b
# Experimental: RASMCs (2×10^4) were seeded onto 6-well plates and grown in DMEM supplemented with 10% FCS. […] Medium and progesterone were changed daily. Cells were counted in a Coulter apparatus at various times after their removal from the plates with trypsin-EDTA.
smiles,measurement,setting,value
CC(=O)[C@H]1CC[C@H]2[C@@H]3CCC4=CC(=O)CC[C@]4(C)[C@H]3CC[C@]12C [progesterone],effect of serum (FCS) concentration on progesterone-induced inhibition of [3H]thymidine incorporation,"[1]; RASMCs, progesterone 500 nM, FIG. 2c",counteracted by serum in a dose-dependent manner
same,effect on [3H]thymidine incorporation in RASMCs,"[1]; quiescent RASMCs, 24 h incubation, FIG. 2a/2b",inhibited
same,cyclin A mRNA level,[2],downregulated
same,cyclin B mRNA level,[2],did not change
same,cyclin D1 mRNA level,[2],did not change
same,cyclin E mRNA level,[2],downregulated
same,effect on [3H]thymidine incorporation in HASMCs,[3],dose-dependent inhibition
same,"reduction in RASMC cell growth, dose dependence",[4],dose-dependent

# From patent US6440954B1, “Inhibition of vascular smooth muscle cell proliferation” (President and Fellows of Harvard College, priority 1997, dated 2002)
